What was measured:
STZ-diabetic rats [1] = test: Neuropathic pain in STZ model (Hargreaves thermal nociception); type: in vivo, Sprague-Dawley rats; details: 10 mg/kg i.p. daily, started 45 days post-STZ
Description: In vivo Assay of NAALADase Inhibitors on Neuropathic Pain in STZ Model
Male Sprague-Dawley rats (200–225 g) were rendered diabetic by intravenous administration of streptozotocin (“STZ”, 70 mg/kg in phosphate buffered saline). Diabetic animals were divided into five groups: one group receiving Compound A (10 mg/kg or 1 mg/kg), Compound D (10 mg/kg or 1 mg/kg) or vehicle. Another group of animals (non-STZ treated) served as non-diabetic controls. Drug/vehicle treatment was started in diabetic animals 45 days post-STZ administration. STZ-induced diabetic rats were tested for sensitivity to a heat source as soon as blood glucose levels rose to 320 mg/dl or above (30 days post STZ). The rats were then acclimated to a Hargreaves apparatus and thermal nociception was monitored using an infrared heat source directed into the dorsal surface of the hindpaw, and the time taken for the animal to remove its paw noted to the nearest 0.1 seconds (see Hargreaves et al., J. Biol. Chem. (1988) 263(36):19392–7 for a description of the experimental method). The intensity of the beam source was adjusted such that the mean latency for control animals (non-STZ treated) was approximately 10 seconds. Each animal was tested 8 times and the mean difference score (between mean non-diabetic control latency and mean diabetic latency) are graphically presented in FIGS. 7A and 7B.

BB/W diabetic rats [2] = test: Progression of neuropathic pain in BB/W model (withdrawal latency); type: in vivo; details: 10 mg/kg i.p. daily; vs diabetic vehicle-treated rats, from 4 weeks through six months of treatment, FIG. 11
Description: In vivo Assay of NAALADase Inhibitors on Progression of Neuropathic Pain in BB/W Models
(§1) Male BB/W rats (BRI, Mass) spontaneously develop a cell mediated autoimmune destruction of pancreatic B cells, resulting in onset of insulin-dependent (Type I) diabetes (Awata, Guberski, Endocrinology (1995) 136(12):5731–5). […] This renders them valuable for experimental trials of new compounds for future treatments of this major disorder. In the present study, Compound A and Compound D were examined for their ability to alter the progression of diabetic neuropathy. The rats received daily injection of Compound A or Compound D (10 mg/kg i.p.) or vehicle, starting at the onset of diabetes (hyperglycemia) and up to 6 months thereafter. Another group of non-diabetic rats also receiving vehicle were tested. All animals were continuously monitored for body weight, urine volume, blood sugar and glycated haemoglobin. In the first month of the study, all animals were tested for thermal nociception in a Hargreaves apparatus, weekly. After the first month this was done biweekly and then monthly. The testing consists of directing an infrared heat source onto the dorsal surface of the rat hindpaw and noting the time taken for the animal to remove its paw (see Hargreaves et al., J. Biol. Chem. (1988) 263(36):19392–7 for a description of the experimental method). […]

BB/W diabetic rats [3] = test: Nerve conduction velocity in BB/W model; type: in vivo; details: 10 mg/kg daily; vs diabetic vehicle controls, from 8 weeks to six months, FIG. 12
Description: as §1, with “monthly.” for “monthly. The testing consists of directing an infrared heat source onto the dorsal surface of the rat hindpaw and noting the time taken for the animal to remove its paw (see Hargreaves et al., J. Biol. Chem. (1988) 263(36):19392–7 for a description of the experimental method).”
Nerve conduction velocity was also measured every two weeks through the first eight weeks of treatment and every month thereafter through to the six months of treatment (see De Koning et al., Peptides, Vol. 8, No. 3, pp. 415–22 (1987) for a description of the experimental method). […]

STZ-diabetic rats [4] = test: Diabetic neuropathy in STZ model (motor and sensory nerve conduction velocity); type: in vivo
Description: In vivo Assay of NAALADase Inhibitors on Diabetic Neuropathy in STZ Model
Motor and sensory nerve conduction velocity was also measured in STZ-diabetic animals after 4, 8 and 12 weeks of treatment (see De Koning et al., supra, for a description of the experimental method). Briefly, stimulating needle electrodes were inserted close to the sciatic and tibial nerves with recording electrodes being placed subcutaneously over the distal foot muscles, in anesthetized rats.

STZ diabetic rats [5] = test: Reversal of diabetic neuropathy in STZ model, delayed dosing: thermal hyperalgesia; type: in vivo
Description: (§2) In vivo Assay of NAALADase Inhibitors—Reversal of Diabetic Neuropathy in STZ Model
(§3) General Method for STZ Model—Delayed Dosing
(§4) Rats (200–225 grams) were injected with STZ (70 mg/kg) into the tail vein. Diabetes (>350 mg/dl) was confirmed in all rats, 4 weeks after STZ administration. Rats were left untreated until 35–49 days after STZ. Compound D (1, 3, or 10 mg/kg), Compound E (10 mg/kg), or vehicle were dosed daily p.o. following confirmation of hyperalgesia and/or nerve conduction velocity deficits. In separate experiments, onset of treatment was delayed until 60 to 90 days after STZ administration. Nerve conduction velocity or withdrawal response to thermal stimulation of hind paws was measured at intervals, usually bi-weekly for thermal response and monthly for nerve conduction velocity.
Animals were acclimated to the apparatus for at least 5 min. An infra-red source was placed under below the plantar surface of the rat hind-paw. The intensity of the source was adjusted so that latency for normal rats was about 10 secs. Animals were tested for thermal response latency according to the method of Hargreaves et al (Pain 77–88, 1988). Each animal was tested 8 times (4 each hind limb) and the latency of response recorded automatically to nearest 0.1 sec. An average of the last 4 measurements for each paw was calculated (8 total measurements) and noted for each rat.

STZ diabetic rats [6] = test: Reversal of diabetic neuropathy in STZ model, delayed dosing: nerve conduction velocity; type: in vivo
Description: as §2, §3, §4
Nerve Conduction Velocity Measurements
Sensory and motor nerve conduction velocities were evaluated using the method of De Koning and Gispen (Peptides 8: 415–422, 1987). Electrophysiological evaluation was carried out within one hour of dosing. Animals were anesthetized with isoflurane and stimulating needle electrodes were inserted close to the sciatic nerve at the sciatic notch and the tibial nerve near the ankle. Recording electrodes were placed over the foot muscles. Stimuli were applied and responses recorded. Motor and sensory nerve conduction velocities were calculated by measuring the distance between the sciatic notch and ankle sites, and the latency between the M-wave and the H-reflex.

## O=C(O)CCC(CCS)C(=O)O (centres unmarked) [Compound D, 2-(2-sulfanylethyl)pentanedioic acid]
STZ-diabetic rats [1]
  hyperalgesic response (withdrawal latency difference score): completely reversed
BB/W diabetic rats [2]
  withdrawal latency: longer withdrawal latencies
BB/W diabetic rats [3]
  nerve conduction velocity: significantly less severe nerve conduction deficits
STZ-diabetic rats [4]; 1 mg/kg dose
  treatment time at which increase of motor and sensory nerve conduction velocities was significant: at the earlier time periods
STZ-diabetic rats [4]; either dose (10 mg/kg or 1 mg/kg), vs diabetic controls, FIGS. 10A and 10B
  motor and sensory nerve conduction velocities: increased both motor and sensory nerve conduction velocities
STZ diabetic rats [5]; daily p.o., treatment from 5 weeks post STZ, within two weeks of treatment, FIG. 22
  neuropathic hyperalgesia (thermal response latency): reversed towards normal
STZ diabetic rats [5]; lower doses (1 and 3 mg/kg) initiated after 7 weeks of STZ treatment, FIG. 25
  neuropathic pain abnormalities: Significant reduction in pain abnormalities
STZ diabetic rats [6]; daily p.o., within 8 weeks of dosing, persisted through 12 weeks, FIG. 23
  motor nerve conduction velocity: reversed the motor nerve conduction velocity towards normal
STZ diabetic rats [6]; lower doses (1 and 3 mg/kg), even 8 weeks after dosing, FIG. 27
  motor nerve conduction: remained unimproved
STZ diabetic rats [6]; lower doses (1 and 3 mg/kg), within 4 weeks of treatment, FIG. 26
  sensory nerve conduction: significantly improved towards normal
STZ diabetic rats [6]; untreated until 60 days after STZ treatment, external CRO, FIGS. 28 and 29
  sensory and motor nerve conduction velocity deficits: Partial reversal of both deficits

Reference: patent publication US7138543B2, “Thiolalkyl benzoic acid derivatives” (Guilford Pharmaceuticals Inc., priority 2001, dated 2006)
